Results taken from patent publication US10583206B2, “Radioactive probe for detecting hydrogen sulfide” (KYUNGPOOK NATIONAL UNIVERSITY INDUSTRY-ACADEMIC COOPERATION …, priority 2015, dated 2020).
Where two headings read alike, the source gives them in different places.

Legend:
CT26 tumor = assay: Imaging study in CT26 tumor model (PET); assay type: in vivo, BALB/c mouse
Source text: To prepare a CT26 tumor model, the number of cells was counted using a haemacytometer, and 5×10^6 cells were subcutaneously injected into the right flank of BALB/c mouse. About 10 days later, when formation of about 1 cm of tumor was observed, the mice were used in subsequent experiments.
(§1) PET images were obtained after injecting the ^64Cu-labeled complex compound of Example 1 into the prepared rat model having EMT6 tumor and rat model having CT26 tumor.

[1] = Imaging study of hydrogen sulfide in normal rat (PET); assay type: in vivo; settings: PET image before excision of the tongue
Source text: PET images were obtained after injecting the ^64Cu-labeled complex compound of Example 1 into a normal rat, and PET images were obtained again after excision of the tongue thereof. […] However, after excision (B), the uptake was decreased in the same site. […] (C) is a photograph taken before imaging the tongue after excision.

[2] = Hydrogen sulfide selectivity test: decomplexation by NaNO2; assay type: physicochemical; settings: NaNO2 (100 µM); 37° C. for 15 minutes
[3] = Test of hydrogen sulfide detection over time (^64CuS formation, radio-TLC); assay type: physicochemical; parameters: unit not given here; settings: 100 μM NaHS, 37° C.
Paw inflammation model = assay type: in vivo, Balb/c or ICR mice
Outline: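 CFA or formalin injected into right hind paw of Balb/c or ICR mice; used 1 day later. PET/CT, optical and Cherenkov (^64Cu, CCD) imaging, 1–5 min acquisitions, dose about 50–2000 μCi, imaged immediately and at 1, 4 and 24 hours post-injection.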

[4] = Hydrogen sulfide selectivity test: decomplexation by NaOAc; assay type: physicochemical; settings: 100 μM or (1 mM), 37° C. for 15 minutes
EMT6 tumor = assay: Imaging study in EMT6 tumor model (PET); assay type: in vivo, BALB/c female mouse
Source text: To prepare an EMT6 tumor model, the number of cells was counted using a haemacytometer, and 2×10^5 cells were subcutaneously injected into the right flank and left shoulder region of BALB/c female mouse. About 2˜3 weeks later, when formation of about 1 cm of tumor was observed, the mice were used in subsequent experiments.
as §1

Arthritis model = assay: Imaging in arthritis model; assay type: in vivo, DBA/1J mice
Protocol: An arthritis inducer, bovine type II collagen was intradermally injected into the tails of DBA/1J mice twice, and 5 weeks later (about 13-week-old), the mice were used in imaging tests. Arthritis degree of the paw was quantified by scoring.
Nuclear medicine imaging was measured by using an Inveon PET/CT system of Siemens Healthcare, and optical imaging was measured by using IVIS spectrum CT equipment. Cherenkov radiation emitted from ^64Cu was measured by using a highly sensitive CCD (charge-coupled device) camera.
Imaging was measured for 1 minute to 5 minutes, and a radiation dose was about 50 μCi to 2000 μCi, and photographs were variously taken as needed, such as immediately after first injection, at 1 hour, 4 hours, and 24 hours later.

[5] = Test of hydrogen sulfide-specific imaging (matrigel/NaHS sites on backs of rats, optical imaging); assay type: in vivo
Protocol: In order to examine whether the ^64Cu-labeled complex compounds according to the present disclosure are able to selectively detect in vivo hydrogen sulfide, different materials were injected into the backs of rats, and then each ^64Cu-labeled complex compound according to the present disclosure was injected via the tail, and then selective imaging was examined by optical imaging.
Referring to FIG. 4, at the beginning of the first experiment, matrigel alone, matrigel+1 mg NaCl, matrigel+0.5 mg NaHS, and matrigel+0.05 mg NaHS were injected into four sites on the backs of rats, respectively. 1.8 mCi of the ^64Cu-labeled complex compound according to Example 1 was injected via the tails of rats, immediately followed by optical imaging.

[6] = Hydrogen sulfide selectivity test: decomplexation by DTT; assay type: physicochemical; settings: DL-dithiothretitol (DTT, 100 μM); 37° C. for 15 minutes
Sepsis model = assay: Imaging study in sepsis model (PET); assay type: in vivo, ICR mice
Source text: After the lower abdominal region of ICR mice was opened, a small puncture in the appendix was made by using a syringe needle to prepare an acute sepsis model.
PET images were obtained after injecting the ^64Cu-labeled complex compound of Example 20 into the prepared rat model having sepsis.

## C1C[N]2CC[N]3CC[N]4CC[N]1[64Cu]243 [Example 1, ^64Cu-labeled cyclen]
CT26 tumor
  uptake in the tumor region versus background: higher uptake was observed in the tumor region
[1]
  uptake in the tongue: high uptake was observed in the tongue
[2]
  Decomplexation [%]: 0.6 ± 0.0%
[3]; 10 sec
  Formation of copper sulfide (^64CuS) over time: 13
[3]; 30 sec
  Formation of copper sulfide (^64CuS) over time: 17
[3]; 60 sec
  Formation of copper sulfide (^64CuS) over time: 21
[3]; 5 min
  Formation of copper sulfide (^64CuS) over time: 100
[3]; 10 min
  Formation of copper sulfide (^64CuS) over time: 100
[3]; 15 min
  Formation of copper sulfide (^64CuS) over time: 100
Paw inflammation model; ICR and Balb/c, mouse, in vivo
  retention time in the animal models: ≥ 24 h
Paw inflammation model; PET imaging
  uptake in inflamed paw versus opposite paw: higher uptake in the inflamed right paw than in the opposite paw
Paw inflammation model; optical imaging
  uptake in the CFA-induced inflamed site: increased uptake
[4]
  Decomplexation [%]: 0.6 ± 0.1%
EMT6 tumor
  uptake in the tumor region versus background: higher uptake was observed in the tumor region
Arthritis model
  uptake in the joint region: selective uptake in the joint region
[5]; 1.8 mCi via the tails of rats, imaging immediately
  optical imaging signals at four injected sites (matrigel alone, +NaCl, +0.5 mg NaHS, +0.05 mg NaHS): signals were detected only in the lower two sites injected with NaHS
[5]; after 4 hours
  optical imaging signals at four injected sites (matrigel alone, +NaCl, +0.5 mg NaHS, +0.05 mg NaHS): signals were still detected only in the lower two sites
[6]
  Decomplexation [%]: 0.6 ± 0.4%

## C1C[N]2CC[N]3CC[N]1[64Cu]23 [Example 20, ^64Cu-labeled TACN]
[2]
  Decomplexation [%]: 0.4 ± 0.0%
[3]; 10 sec
  Formation of copper sulfide (^64CuS) over time: 0
[3]; 30 sec
  Formation of copper sulfide (^64CuS) over time: 0
[3]; 60 sec
  Formation of copper sulfide (^64CuS) over time: 5
[3]; 5 min
  Formation of copper sulfide (^64CuS) over time: 13
[3]; 10 min
  Formation of copper sulfide (^64CuS) over time: 60
[3]; 15 min
  Formation of copper sulfide (^64CuS) over time: 60
Paw inflammation model; imaging immediately after injection
  detection of the inflamed site immediately after injection: detected in imaging immediately after injection
Paw inflammation model; imaging performed after 1 hour, also PET imaging
  uptake in inflamed paw versus opposite paw: higher uptake
[4]
  Decomplexation [%]: 0.3 ± 0.0%
Sepsis model
  uptake in the lung: increased uptake was observed in the lung
  uptake throughout the body: uptake was increased throughout the body
[6]
  Decomplexation [%]: 0.9 ± 0.1%
